In patent publication US9751837B2, “Kinase inhibitors” (RESPIVERT LIMITED, priority 2014, dated 2017):
Values after ≈ are worked out from the molar mass of the structure shown. Read-outs that look alike come from different tables or passages of the source.

Assays:
GSK 3α = GSK 3α (Homo sapiens (Human), UniProt P49840); test: GSK 3α enzyme inhibition (Method 2), Z-LYTE FRET; format: biochemical; details: read-out: IC50 Values for Enzyme Inhibition GSK3α
Procedure, shortened: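 Z-LYTE format: the protease cleaves only non-phosphorylated peptide, and the donor/acceptor (coumarin/fluorescein) ratio reports phosphorylation after a 1 hr kinase reaction with peptide (8 μM stock) and ATP (40 μM stock).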

hERG = hERG (Homo sapiens (Human), UniProt Q12809); test: hERG inhibition, IonWorks patch clamp electrophysiology; format: cell-based; details: human, hERG, read-out: % Inhibition at Top Concentration
Sequence of hERG (Q12809 whole entry): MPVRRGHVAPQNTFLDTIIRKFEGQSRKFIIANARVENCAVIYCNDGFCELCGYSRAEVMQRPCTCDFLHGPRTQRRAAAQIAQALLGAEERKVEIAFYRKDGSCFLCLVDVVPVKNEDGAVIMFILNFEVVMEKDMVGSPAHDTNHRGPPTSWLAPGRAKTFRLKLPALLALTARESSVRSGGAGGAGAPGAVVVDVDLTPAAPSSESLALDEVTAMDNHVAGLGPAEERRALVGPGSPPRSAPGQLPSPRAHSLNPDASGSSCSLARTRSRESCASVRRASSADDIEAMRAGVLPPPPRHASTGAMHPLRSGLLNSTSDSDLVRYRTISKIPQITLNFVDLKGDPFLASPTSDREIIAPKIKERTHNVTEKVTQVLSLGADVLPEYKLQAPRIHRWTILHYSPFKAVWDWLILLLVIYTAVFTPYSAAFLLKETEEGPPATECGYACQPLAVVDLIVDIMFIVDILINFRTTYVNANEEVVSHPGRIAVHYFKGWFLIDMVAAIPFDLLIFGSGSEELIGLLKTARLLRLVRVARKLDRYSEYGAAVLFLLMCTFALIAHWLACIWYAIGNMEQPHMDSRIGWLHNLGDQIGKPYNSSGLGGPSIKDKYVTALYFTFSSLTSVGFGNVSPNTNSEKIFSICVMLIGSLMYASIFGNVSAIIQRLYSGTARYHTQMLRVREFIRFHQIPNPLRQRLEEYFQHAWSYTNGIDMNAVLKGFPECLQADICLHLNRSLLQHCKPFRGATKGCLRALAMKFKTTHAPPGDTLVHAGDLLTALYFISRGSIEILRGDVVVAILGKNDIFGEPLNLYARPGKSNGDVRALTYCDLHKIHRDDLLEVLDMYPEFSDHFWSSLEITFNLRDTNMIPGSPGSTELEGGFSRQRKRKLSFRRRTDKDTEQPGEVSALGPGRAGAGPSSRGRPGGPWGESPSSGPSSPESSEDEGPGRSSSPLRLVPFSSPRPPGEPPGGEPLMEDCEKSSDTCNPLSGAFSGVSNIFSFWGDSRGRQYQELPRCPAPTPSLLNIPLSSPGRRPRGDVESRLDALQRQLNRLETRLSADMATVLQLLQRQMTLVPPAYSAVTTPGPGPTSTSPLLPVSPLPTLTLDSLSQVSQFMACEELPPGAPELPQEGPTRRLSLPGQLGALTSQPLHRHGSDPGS
Procedure: (§1) Compounds of the invention were tested for inhibition of the human ether a go-go (hERG) channel using IonWorks™ patch clamp electrophysiology at Essen Bioscience (Welwyn Garden City, England).

[1] = target: human ether a go-go (hERG) channel (Homo sapiens (Human), UniProt Q12809); test: as above; format: cell-based; details: IonWorks patch clamp
Sequence of human ether a go-go (hERG) channel (Q12809 whole entry): as above
Procedure: as §1

Jurkat cells = test: Cell cytotoxicity assay (r); format: cell-based, human; details: 24 hours
Procedure, shortened: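 Viability read by flow cytometry as the fraction of propidium iodide-negative cells (7.5 μg/mL PI, 15 min), relative to 1.0% DMSO control. Beforehand, 1×10^5 Jurkat cells in RPMI/10% FBS were treated 24 h at 37° C., 5% CO2 with test compound at final 20, 5 or 1 μg/mL.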

[2] = Solubility in fasted-state simulated colonic fluid (FaSSCoF) at pH 6.5; format: physicochemical; details: 25 °C, pH 6.5, fassgf or other biorelevant, thermodynamic from solid
Procedure, shortened: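 Compounds were suspended at up to 2-10 mg/mL in pH 6.5 Tris/maleate FaSSCoF containing a five-bile-acid mixture, phosphatidylcholine, palmitic acid and BSA. After 24 h equilibration at 25° C the suspension was filtered and the filtrate quantified by HPLC peak area against a standard.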

[3] = pH 6.5 FaSSCoF Solubility (mg/mL) Run 1
[4] = pH 6.5 FaSSCoF Solubility (mg/mL) Run 2

Sequence of GSK 3α (P49840 whole entry): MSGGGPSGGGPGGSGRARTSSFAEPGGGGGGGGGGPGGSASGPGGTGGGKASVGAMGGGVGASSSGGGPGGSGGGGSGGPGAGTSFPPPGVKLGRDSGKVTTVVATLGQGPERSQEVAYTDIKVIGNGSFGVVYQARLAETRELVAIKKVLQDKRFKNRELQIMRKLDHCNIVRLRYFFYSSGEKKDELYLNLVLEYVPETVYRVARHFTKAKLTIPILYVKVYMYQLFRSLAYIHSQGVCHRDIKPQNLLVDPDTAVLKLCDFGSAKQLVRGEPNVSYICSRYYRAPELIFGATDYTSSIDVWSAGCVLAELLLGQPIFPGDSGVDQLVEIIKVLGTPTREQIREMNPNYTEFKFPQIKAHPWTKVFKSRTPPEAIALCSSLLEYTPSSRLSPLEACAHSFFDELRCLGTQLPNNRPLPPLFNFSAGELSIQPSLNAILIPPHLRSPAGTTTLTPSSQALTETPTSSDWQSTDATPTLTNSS

Row | Structure (SMILES) | IC50 (GSK 3α) [nM] | IC50 [1] [nM] | solubility thermodynamic at 24 h [2, 3] [mg/mL] | solubility thermodynamic at 24 h [2, 4] [mg/mL] | inhibition at 11 µM (hERG) [%] | other results
1 | COc1cc(Nc2cc(Oc3ccc(NC(=O)Nc4cc(C(C)(C)C)cc(NS(C)(=O)=O)c4OC)c4ccccc34)ccn2)ccc1C(=O)NC1CCN(C)CC1 [17(j), 4-[[4-[[4-[[5-tert-butyl-3-(methanesulfonamido)-2-methoxy-phenyl]carbamoylamino]-1-naphthyl]oxy]-2-pyridyl]amino]-2-methoxy-N-(1-methyl-4-piperidyl)benzamide] | 2000 | > 3300 |  |  |  | inhibition at 3 µM (hERG; 3 μM): 7%
2 | COc1cc(Nc2cc(Oc3ccc(NC(=O)Nc4cc(C(C)(C)C)cc(NS(C)(=O)=O)c4OC)c4ccccc34)ccn2)ccc1C(=O)NCCC1CCN(C)CC1 [Example 14, 4-[[4-[[4-[[5-tert-Butyl-3-(methanesulfonamido)-2-methoxy-phenyl]carbamoylamino]-1-naphthyl]oxy]-2-pyridyl]amino]-2-methoxy-N-[2-(1-methyl-4-piperidyl)ethyl]benzamide] | 2200 |  | 0.016 (≈ 19.4 µM) | 0.013 (≈ 15.8 µM) |  | % Viability at 20 μg/mL (Jurkat cells; 20 μg/mL): 0.7%
3 | C#Cc1cc(Nc2cc(Oc3ccc(NC(=O)Nc4cc(C(C)(C)C)cc(NS(C)(=O)=O)c4OC)c4ccccc34)ccn2)ccc1C(=O)NCCN1CCOCC1 [Example 15, 4-[[4-[[4-[[5-tert-Butyl-3-(methanesulfonamido)-2-methoxy-phenyl]carbamoylamino]-1-naphthyl]oxy]-2-pyridyl]amino]-2-ethynyl-N-(2-morpholinoethyl)benzamide] | 2790 |  | 0.01 (≈ 12.4 µM) | 0.01 (≈ 12.4 µM) |  | % Viability at 5 μg/mL (Jurkat cells; 5 μg/mL): 75.0%
4 | COc1cc(Nc2cc(Oc3ccc(NC(=O)Nc4cc(C(C)(C)C)cc(NS(C)(=O)=O)c4OC)c4ccccc34)ccn2)cc(OC)c1C(=O)NCCN1CCN(C)CC1 [Example 22, 4-((4-((4-(3-(5-(tert-Butyl)-2-methoxy-3-(methylsulfonamido)phenyl)ureido)naphthalen-1-yl)oxy)pyridin-2-yl)amino)-2,6-dimethoxy-N-(2-(4-methylpiperazin-1-yl)ethyl)benzamide] |  | > 3700 | 0.017 (≈ 19.9 µM) | 0.025 (≈ 29.2 µM) |  | solubility thermodynamic at 24 h ([2]; pH 6.5 FaSSCoF Solubility (mg/mL) Run 3): 0.013 mg/mL (≈ 15.2 µM); solubility thermodynamic at 24 h ([2]; pH 6.5 FaSSCoF Solubility (mg/mL) Run 4): 0.009 mg/mL (≈ 10.5 µM); inhibition at 3.7 µM (hERG; 3.7 μM): 13%
5 | COc1cc(Nc2cc(Oc3ccc(NC(=O)Nc4cc(C(C)(C)C)cc(NC(=O)CO)c4OC)c4ccccc34)ccn2)ccc1C(=O)NCCN1CC[S+]([O-])CC1 [Example 41, 4-((4-((4-(3-(5-(tert-Butyl)-3-(2-hydroxyacetamido)-2-methoxyphenyl)ureido)naphthalen-1-yl)oxy)pyridin-2-yl)amino)-2-methoxy-N-(2-(1-oxidothiomorpholino)ethyl)benzamide] |  | > 11000 | 0.007 (≈ 8.5 µM) | 0.003 (≈ 3.64 µM) | 7 | 
6 | CCOP(C)(=O)c1ccc(Nc2cc(Oc3ccc(NC(=O)Nc4cc(C(C)(C)C)cc(NS(C)(=O)=O)c4OC)c4ccccc34)ccn2)cc1OC (stereo not drawn) [Example 43, ethyl (4-((4-((4-(3-(5-(tert-butyl)-2-methoxy-3-(methylsulfonamido)phenyl)-ureido)naphthalen-1-yl)oxy)pyridin-2-yl)amino)-2-methoxyphenyl)(methyl)phosphinate] |  | > 11000 |  |  | 13 | solubility thermodynamic at 24 h ([2]; FaSSCoF pH 6.5, 25° C., 24 h, Run 1, read-out: pH 6.5 FaSSCoF Solubility (mg/mL) Run 1): 0.003 mg/mL (≈ 3.94 µM); solubility thermodynamic at 24 h ([2]; FaSSCoF pH 6.5, 25° C., 24 h, Run 2, read-out: pH 6.5 FaSSCoF Solubility (mg/mL) Run 2): 0.003 mg/mL (≈ 3.94 µM)
7 | COc1cc(Nc2cc(Oc3ccc(NC(=O)Nc4cc(C(C)(C)C)cc(N(CCO)S(C)(=O)=O)c4OC)c4ccccc34)ccn2)ccc1C(=O)NCCN1CC[S+]([O-])CC1 [Example 48, 4-((4-((4-(3-(5-(tert-Butyl)-3-(N-(2-hydroxyethyl)methylsulfonamido)-2-methoxyphenyl)-ureido)naphthalen-1-yl)oxy)pyridin-2-yl)amino)-2-methoxy-N-(2-(1-oxidothiomorpholino)-ethyl)benzamide] |  | > 11000 | 0.011 (≈ 12.4 µM) | 0.01 (≈ 11.3 µM) | -6 | % Viability at 1 μg/mL (Jurkat cells; 1 μg/mL): 89.0%
